Paper PMC3720542, “Population pharmacokinetics of mefloquine, piperaquine and artemether-lumefantrine in Cambodian and Tanzanian malaria patients” (Malaria Journal, 2013)
Values after ≈ are worked out from the molar mass of the structure shown. Where two headings read alike, the source gives them in different places.

What was measured:
[1] = cited from earlier work
malaria = system: malaria; parameters: method as in PMID 10579474; details: cited from earlier work
clinical = details: human, in vivo
Procedure: The second study was conducted during October 2007 to February 2008 at the Phnom Dék Health Centre, Rovieng district, Preah Vihear province, Cambodia. Entry criteria and study procedures were identical as in the Tanzanian study with minor adaptations described below. […] Pregnant or lactating women were excluded. Three doses of AS (Arsumax®, Sanofi-Aventis, France) and MQ (Eloquine®, Medochemie Ltd, Cyprus) were given according to body weight on three consecutive days (see Table 1). Patients were seen by the clinical officer on days 1, 2, 3, 7, 14, 21, 28, 35 and 42. Sampling for the pharmacokinetic study was done at pre-dose and approximately 1 h after first dose intake on day 0, and on days 1, 2, 7 and 14 at pre-defined random times after drug intake.
Samples of 2 ml of venous blood were collected on an EDTA Vacutainer and kept on ice for no longer than 6 h after withdrawal and then aliquoted into whole blood, plasma and pellet and immediately stored in liquid nitrogen or a –80°C freezer. […] The method was validated according to FDA recommendations, including assessment of extraction yield, matrix effect variability, overall process efficiency, standard addition experiments as well as anti-malarials short- and long-term stability in plasma. […] The laboratory is part of the quality control system of the World-Wide Antimalarial Resistance Network (WWARN).
The pharmacokinetic analysis for each drug taken separately was performed using the NONMEM computer program Version 6 (NM-TRAN version II). It uses mixed (fixed and random) effects regression to estimate population means and variances of the pharmacokinetic parameters and to identify factors that influence them.
One-, two- and three-compartment pharmacokinetic models with first-order absorption, with and without absorption lag times, were compared. Additional one or two-compartments were used for anti-malarials presenting metabolite concentrations (AM and LF). The final parameters estimated were systemic clearance (CL/F), inter-compartmental clearance (Q/F), central volume of distribution (VC/F), peripheral volume of distribution (VP/F) and absorption rate constant (ka). Since no intravenous drug concentration data were available, these parameters represent apparent values. Where available, metabolite data were included into the model and metabolism rate constant from drug compartment to metabolite compartment (k23) and metabolite clearance (CLmet) were also estimated. Owing to identifiability problems, the volume of distribution of the metabolites (VM) DLF and DHA were assumed to equal LF and AM VC, respectively. […] The observed baseline residual plasma concentrations were fitted by estimating a factor (F0) that provided an estimation of the residual doses from previous treatment.
Exponential errors following a log-normal distribution were assumed for the description of inter-patient variability of the pharmacokinetic parameters and were of the form: θi=θ×e^ηj where θi is the individual pharmacokinetic parameter value in the j^th individual, θ is the population parameter estimate, and ηj is the random effect value, which is independently and normally distributed with a mean of 0 and variance ω^2. Proportional and combined proportional-and-additive error models were compared to describe intra-patient (residual) variability for the mother compound, and if available for its metabolite using Cpij(1 + ϵ1ij) + ϵ2ij or Cmij(1 + ϵ3ij) + ϵ4ij, where Cpij are the corresponding predicted i^th drug plasma concentration and Cmij are the predicted metabolite concentration for the j^th individual, and ϵ1ij, ϵ2ij, ϵ3ij, ϵ4ij, are independent normally distributed residual error terms with a mean of zero and a variance of σ^2_1, σ^2_2, σ^2_3, σ^2_4.
The covariate analysis was performed using a stepwise insertion/deletion approach. […]

[2] = patients, median age 9.3 (4–15) years, n 74, sampling 28 days
[3] = patients, median age 14.8 (8–61) years, n 128, sampling 28 days
[4] = patients, median age 19 (2–55) years, n 50, sampling 63 days
[5] = prophylaxis, mean age 26 (18–55) years, n 1,111, sampling 26 weeks

## OC(c1cc(C(F)(F)F)nc2c(C(F)(F)F)cccc12)C1CCCCN1 (centres unmarked) [Mefloquine, mefloquine]
[1]; [2]
  CL, population estimate for a person of 70 kg: 3.71 L/h
  VSS, population estimate for a person of 70 kg: 1,089.2 L
[1]; [3]
  CL, population estimate for a person of 70 kg: 1.4 L/h
  VSS, population estimate for a person of 70 kg: 574.7 L
[1]; [4]
  CL, population estimate for a person of 70 kg: 2.1 L/h
  VSS, population estimate for a person of 70 kg: 767.62 L
[1]; [5]
  CL, population estimate for a person of 70 kg: 1.75 L/h
  VSS, population estimate for a person of 70 kg: 863 L
malaria
  minimal inhibitory concentration, MIC (drug plasma concentration): 0.5 µg/mL (≈ 1.32 µM)
clinical
  CL (clearance), population estimate: 0.10 × BW^0.75 L/h/kg
  CL, bootstrap mean of 200: 0.10 × BW^0.75 L/h/kg
  F0 (residual amount from the previous treatment), population estimate: 33.1 mg
  F0, bootstrap mean of 200: 31.0 mg
  IIV (inter-individual variability) of CL: 12%
  IIV (inter-individual variability) of F0: 175%
  IIV (inter-individual variability) of VC: 19%
  VC (central volume of distribution), population estimate: 8.93 × BW L/kg
  VC, bootstrap mean of 200: 9.01 × BW L/kg
  Vd: 625 L
  clearance: 40 mL/min
  inter-individual variability in concentration exposure: ~12%
  ka (first-order absorption rate constant), population estimate: 0.15 h⁻¹
  ka, bootstrap mean of 200: 0.15 h⁻¹
  residual dose (F0) as percentage of an initial dose: 6.7–26.7%
  σC, bootstrap mean of 200: 43%
  σC, residual error for the central compartment, population estimate: 43%
